Here are results for 26 compounds from patent US9458104B2 (priority 2012, dated 2016).

The term IC50 denotes the concentration that inhibits the measured activity by half.

SMILES strings stand for the structures.

For one test, the target named is T1, RORγ (UniProt P51449).
T1 construct: hRORg-LBD|aa259-518|NP_005051.2; hRORgt|aa1-497|NP_001001523 (RORg, t isoform, 497aa); mRORg-LBD|aa264-516|NP_035411
T1 sequence (P51449 1-518): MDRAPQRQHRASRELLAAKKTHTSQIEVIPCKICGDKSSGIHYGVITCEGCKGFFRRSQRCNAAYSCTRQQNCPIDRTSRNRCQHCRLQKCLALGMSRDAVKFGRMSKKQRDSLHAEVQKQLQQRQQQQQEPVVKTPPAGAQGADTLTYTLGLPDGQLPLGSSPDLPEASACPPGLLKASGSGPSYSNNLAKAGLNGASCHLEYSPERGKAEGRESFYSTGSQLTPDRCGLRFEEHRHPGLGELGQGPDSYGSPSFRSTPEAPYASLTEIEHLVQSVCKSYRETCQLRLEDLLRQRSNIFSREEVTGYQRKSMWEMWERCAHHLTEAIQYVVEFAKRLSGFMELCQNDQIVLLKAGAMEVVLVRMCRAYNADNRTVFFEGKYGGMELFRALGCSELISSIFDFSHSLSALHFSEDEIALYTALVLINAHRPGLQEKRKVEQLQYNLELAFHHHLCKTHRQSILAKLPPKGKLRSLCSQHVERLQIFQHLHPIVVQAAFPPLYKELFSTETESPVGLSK
Format: cell-based. Conditions: 293T cells, 16 h; for pIC50 (FF): firefly (FF) luciferase; for pIC50 (REN): renilla normalised (RENnorm) luciferase.

The target of test [1] is T2, RORγ ligand binding domain (LBD) (Homo sapiens, UniProt P51449).
T2 construct: made in house; host or cells: E. coli BL-21 (BL3), vector pDEST15
T2 sequence (P51449 269-508 limits assumed): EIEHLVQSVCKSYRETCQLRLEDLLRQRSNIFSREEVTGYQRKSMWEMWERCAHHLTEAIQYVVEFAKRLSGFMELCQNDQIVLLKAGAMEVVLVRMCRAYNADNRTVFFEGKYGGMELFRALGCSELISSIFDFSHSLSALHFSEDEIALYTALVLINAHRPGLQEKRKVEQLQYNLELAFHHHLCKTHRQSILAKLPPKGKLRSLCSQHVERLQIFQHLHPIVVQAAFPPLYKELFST
Put plainly: TR-FRET Activity Assay (ligand sensing assay, RORγ-LBD / coactivator peptide interaction). Format: biochemical. An outline of the steps: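 GST-RORγ LBD expressed in bacteria, 20–60 ng/well, with biotinylated coactivator peptide 200–600 nM, streptavidin-APC and Eu-anti-GST. Buffer: 20 mM Tris-HCl pH 6.8, 60 mM KCl, 1 mM DTT, 5 mM MgCl2, BSA; 1% DMSO. LANCE TR-FRET 665/615 nm ratio; IC50 from four-parameter logistic fit.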

With `Cc1c(S(=O)(=O)CC2CC2)cc(-c2cc(C(C)(C)C)cc(C(C)(C)C)c2)n1CC1CCCCC1` [Example 325, 1-(Cyclohexylmethyl)-3-((cyclopropylmethyl)sulfonyl)-5-(3,5-di-tert-butylphenyl)-2-methyl-1H-pyrrole], on RORγ, the “pIC50 (FF)” value was 6.1 and the “pIC50 (REN)” value came out at 6.1. The IC50 in test [1] is 398 nM.
Consider `Cn1c(C(=O)N[C@H]2C[C@H](C(=O)O)C2)cc(-c2cc(C(C)(C)C)nc(C3(C)CC3)n2)c1CC1CCCCC1` [8/18], for which, on RORγ, the “pIC50 (FF)” value is 6.7 and the “pIC50 (REN)” value is recorded as 6.7. For the same compound, the IC50 in test [1] was 794 nM.
`CC(C)(C)NS(=O)(=O)c1ccc(-c2cc(C(=O)N[C@H]3C[C@H](C(=O)O)C3)nn2CC2CCCCC2)c(Cl)c1Cl` [Example 112, trans-3-(5-(4-(N-(tert-Butyl)sulfamoyl)-2,3-dichlorophenyl)-1-(cyclohexylmethyl)-1H-pyrazole-3-carboxamido)cyclobutanecarboxylic acid]: at RORγ, the “pIC50 (FF)” value is recorded as 6.9 and the “pIC50 (REN)” value is recorded as 6.9. In addition, the IC50 in test [1] is 316 nM.
Turning to `CC(C)(C)c1cc(-c2nc(C(=O)NC3CC3)nn2CC2CCCCC2)cc(C(C)(C)C)c1O` [308/2], at RORγ, the “pIC50 (FF)” value was found to be 6.2 and the “pIC50 (REN)” value turned out to be 6.3. In test [1], the IC50 came out at 631 nM.
For `Cc1c(C(=O)NC2CCOCC2)cn(-c2cc(Br)cc(C(C)(C)C)c2)c1C=C1CCCCC1` [Example 2, 1-(3-Bromo-5-(tert-butyl)phenyl)-5-(cyclohexylidenemethyl)-4-methyl-N-(tetrahydro-2H-pyran-4-yl)-1H-pyrrole-3-carboxamide], in that order: 6.4, 6.5 and 1260 nM.
Consider `CCNC(=O)c1cc(CC2CCCCC2)n(-c2cc(C(C)(C)C)cc(C(C)(C)C)c2)n1` [Example 102/1], for which, at RORγ, the “pIC50 (FF)” value came out at 5.9 and the “pIC50 (REN)” value is recorded as 6.0. Also, the IC50 in test [1] is 631 nM.
For `Cc1cc(-c2nc(C(N)=O)nn2CC2CCCCC2)cc(C(C)(C)C)c1O` [Example 308, 5-(3-(tert-Butyl)-4-hydroxy-5-methylphenyl)-1-(cyclohexylmethyl)-1H-1,2,4-triazole-3-carboxamide], on RORγ, the “pIC50 (FF)” value came to 6.0 and the “pIC50 (REN)” value came out at 5.9. In test [1], this compound gave an IC50 of 7940 nM.
Turning to `CC(C)(O)CNC(=O)c1nc(-c2cc(C(C)(C)C)c(O)c(C(C)(C)C)c2)n(CC2CCCCC2)n1` [308/6], on RORγ, the “pIC50 (FF)” value is listed as 6.5 and the “pIC50 (REN)” value was 6.5. The IC50 in test [1] is 1000 nM.
As to `Cn1c(C(=O)N2CCC(C)(C(=O)O)CC2)cc(-c2cc(C(C)(C)C)cc(C3(C)CC3)c2)c1CC1CCCCC1` [8/16], at RORγ, the “pIC50 (FF)” value was 7.5 and the “pIC50 (REN)” value is listed as 7.6. In addition, the IC50 in test [1] is 1580 nM.
`CC(C)(C)c1cc(-c2cc(C(=O)N[C@H]3C[C@H](C(=O)O)C3)[nH]c2CC2CCCCC2)cc(C2(C)CC2)c1` [Example 17/1]: on RORγ, the “pIC50 (FF)” value is listed as 7.0 and the “pIC50 (REN)” value stood at 7.1. This compound also had an IC50 in test [1] of 794 nM.
With `Cc1c(C(=O)NC2CCOCC2)cn(-c2cc(C(C)(C)C)cc(C3(C)CC3)c2)c1C(O)C1CCCCC1` (stereo not drawn) [Example 15, 1-(3-(tert-Butyl)-5-(1-methylcyclopropyl)phenyl)-5-(cyclohexyl(hydroxy)methyl)-4-methyl-N-(tetrahydro-2H-pyran-4-yl)-1H-pyrrole-3-carboxamide], on RORγ, the “pIC50 (FF)” value stood at 7.0 and the “pIC50 (REN)” value is reported as 7.0. The IC50 in test [1] is 631 nM.
On to `CC(C)(C)c1cc(-c2cc(C(N)=O)[nH]c2CC2CCCCC2)cc(C(C)(C)C)c1` [Example 303, 5-(Cyclohexylmethyl)-4-(3,5-di-tert-butylphenyl)-1H-pyrrole-2-carboxamide], for which, at RORγ, the “pIC50 (FF)” value is less than 4.7 and the “pIC50 (REN)” value is less than 4.7. Besides, the IC50 in test [1] is 501 nM.
As for `Cn1c(C(=O)NCCC(C)(C)C(=O)O)cc(-c2ccc(S(=O)(=O)NC(C)(C)C)c(C(C)(C)C)c2)c1CC1CCCCC1` [Example 8/1], at RORγ, the “pIC50 (FF)” value is listed as 7.0 and the “pIC50 (REN)” value is on record as 7.0. This compound gave an IC50 in test [1] of 2000 nM.
Regarding `Cc1cc(-n2nc(C(N)=O)cc2CC2CCCCC2)cc(C(C)(C)C)c1` [312/2], at RORγ, the “pIC50 (FF)” value was less than 4.7 and the “pIC50 (REN)” value is less than 4.7. Also, the IC50 in test [1] was 7940 nM.
Turning to `C[C@H](NC(=O)c1cc(-c2cc(C(=O)N[C@H]3C[C@H](C(=O)O)C3)n(C)c2CC2CCCCC2)cc(C2(C)CC2)c1)C(F)(F)F` [8/17], on RORγ, the “pIC50 (FF)” value was determined as 7.7 and the “pIC50 (REN)” value turned out to be 7.9. In test [1], this compound showed an IC50 of 1000 nM.
Turning to `Cn1c(C(=O)N2CC(C(C)(C)C(=O)O)C2)cc(-c2cc(C(C)(C)C)cc(C3(C)CC3)c2)c1CC1CCCCC1` [8/15], on RORγ, the “pIC50 (FF)” value amounted to 7.2 and the “pIC50 (REN)” value is recorded as 7.4. Besides, in test [1], the IC50 is 2000 nM.
In the case of `CCS(=O)(=O)c1ccc(CNC(=O)c2cc(-c3ccc(S(=O)(=O)NC(C)(C)C)c(C(F)(F)F)c3)n(CC3CCCCC3)c2C)cc1` [Example 302, 5-(4-(N-(tert-Butyl)sulfamoyl)-3-(trifluoromethyl)phenyl)-1-(cyclohexylmethyl)-N-(4-(ethylsulfonyl)benzyl)-2-methyl-1H-pyrrole-3-carboxamide], on RORγ, the “pIC50 (FF)” value stood at 7.6 and the “pIC50 (REN)” value is listed as 7.8. In test [1], this compound had an IC50 of 6.31 nM.
As to `Cc1c(C(N)=O)cn(-c2cc(C(C)(C)C)cc(C(C)(C)C)c2)c1CC1CCCCC1` [Example 305, 5-(Cyclohexylmethyl)-1-(3,5-di-tert-butylphenyl)-4-methyl-1H-pyrrole-3-carboxamide], on RORγ, the “pIC50 (FF)” value is 6.3 and the “pIC50 (REN)” value worked out at 6.3. The compound further had a concentration for half-maximal inhibition (IC50) in test [1] of 200 nM.
For the compound `Cc1c(C(=O)NC2CCOCC2)cc(-c2ccc(S(=O)(=O)NC(C)(C)C)c(C(F)(F)F)c2)n1CC1CCCOC1` (stereo not drawn) [302/5], at RORγ, the “pIC50 (FF)” value stood at 6.2 and the “pIC50 (REN)” value was determined as 6.3. For the same compound, the half-maximal inhibitory concentration (IC50) in test [1] is 794 nM.
`Cc1c(C(=O)NC2CCOCC2)cc(-c2ccc(S(=O)(=O)NC(C)(C)C)c(C(F)(F)F)c2)n1C1CCCCC1` [302/6]: at RORγ, the “pIC50 (FF)” value came to 6.5 and the “pIC50 (REN)” value turned out to be 6.7. In test [1], this compound gave a half-inhibitory concentration (IC50) of 1000 nM.
As to `Cc1c(C(=O)NCCC(C)(C)C(=O)O)c(C#N)n(-c2ccc(S(=O)(=O)NC(C)(C)C)c(C(F)(F)F)c2)c1CC1CCCCC1` [Example 10, 4-(1-(4-(N-(tert-Butyl)sulfamoyl)-3-(trifluoromethyl)phenyl)-2-cyano-5-(cyclohexylmethyl)-4-methyl-1H-pyrrole-3-carboxamido)-2,2-dimethylbutanoic acid], on RORγ, the “pIC50 (FF)” value is reported as 6.9 and the “pIC50 (REN)” value is reported as 6.9. Further, the IC50 in test [1] is 1580 nM.
Regarding `Cc1c(C(=O)NCCC(C)(C)C(=O)O)c(F)n(-c2ccc(S(=O)(=O)NC(C)(C)C)c(C(F)(F)F)c2)c1CC1CCCCC1` [Example 25, 4-(1-(4-(N-(tert-Butyl)sulfamoyl)-3-(trifluoromethyl)phenyl)-5-(cyclohexylmethyl)-2-fluoro-4-methyl-1H-pyrrole-3-carboxamido)-2,2-dimethylbutanoic acid], at RORγ, the “pIC50 (FF)” value was 8.3 and the “pIC50 (REN)” value worked out at 8.3. The compound further had an IC50 in test [1] of 631 nM.
In the case of `CC(C)(C)NS(=O)(=O)c1ccc(-c2cc(C(=O)NC34CCC(C(=O)O)(CC3)CC4)nn2CC2CCCCC2)c(Cl)c1Cl` [112/2], at RORγ, the “pIC50 (FF)” value is on record as 6.9 and the “pIC50 (REN)” value stood at 7.0. This compound gave an IC50 in test [1] of 794 nM.
Regarding `CC(C)(C)c1cc(-c2nc(C(=O)NC3CCOCC3)nn2CC2CCCCC2)cc(C(C)(C)C)c1O` [308/4], on RORγ, the “pIC50 (FF)” value was found to be 6.3 and the “pIC50 (REN)” value was 6.4. This compound also gave an IC50 in test [1] of 1000 nM.
Take `Cc1c(C(=O)NC2CCOCC2)cn(-c2cc(C(C)(C)C)cc(C3(C)CC3)c2)c1C(=O)N1CCCCC1` [Example 13, 1-(3-(tert-Butyl)-5-(1-methylcyclopropyl)phenyl)-4-methyl-5-(piperidine-1-carbonyl)-N-(tetrahydro-2H-pyran-4-yl)-1H-pyrrole-3-carboxamide]: on RORγ, the “pIC50 (FF)” value is given as 7.1 and the “pIC50 (REN)” value was 7.1. In addition, the IC50 in test [1] was 1000 nM.
Consider `Cn1c(C(=O)NC23CCC(C(=O)O)(CC2)CC3)cc(-c2cc(C(C)(C)C)cc(C3(C)CC3)c2)c1CC1CCCCC1` [8/14], for which, on RORγ, the “pIC50 (FF)” value turned out to be 7.4 and the “pIC50 (REN)” value came to 7.6. The 50% inhibitory concentration (IC50) in test [1] is 2000 nM.
